Results from patent US20230346961A1, “GLP-1 AND GIP RECEPTOR CO-AGONISTS” (Novo Nordisk A/S, priority 2020, published 2023).
Where two headings read alike, the source gives them in different places. Starred links: 1 amine or outer side, 2 acyl side, 3 side chain; linkers in the order of their positions; H or OH if unused. Non-standard residues stand in square brackets, D forms with d. Residues, ends and D or L forms follow the SMILES beside them. Groups on a side chain read outwards from the residue. *: point of attachment. C20 diacid = O=C(O)CCCCCCCCCCCCCCCCCCC(=O)*; γGlu = O=C(O)[C@H](CCC(=O)[*:2])N[*:1]; εLys = N[C@@H](CCCCN[*:1])C(=O)[*:2]; Trx = NC[C@H]1CC[C@H](C(=O)O)CC1; AEEA = NCCOCCOCC(=O)O; Aib = CC(C)(N)C(=O)O

How the values were obtained:
mouse GIP receptor = target: T1, mouse GIP receptor (Mus musculus, UniProt Q0P543); test: cell-based
T1 sequence (Q0P543 19-460): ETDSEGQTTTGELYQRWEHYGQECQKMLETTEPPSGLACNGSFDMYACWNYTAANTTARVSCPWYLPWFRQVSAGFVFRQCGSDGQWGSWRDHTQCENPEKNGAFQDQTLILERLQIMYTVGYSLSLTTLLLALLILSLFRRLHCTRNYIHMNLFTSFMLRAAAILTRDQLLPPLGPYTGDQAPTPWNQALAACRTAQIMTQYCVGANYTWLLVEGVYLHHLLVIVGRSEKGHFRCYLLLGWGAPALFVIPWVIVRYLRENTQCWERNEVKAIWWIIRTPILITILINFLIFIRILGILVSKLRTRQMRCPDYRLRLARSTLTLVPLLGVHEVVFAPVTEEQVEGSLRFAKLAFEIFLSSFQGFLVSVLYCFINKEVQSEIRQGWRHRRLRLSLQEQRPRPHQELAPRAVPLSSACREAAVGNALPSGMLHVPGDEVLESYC

mouse GLP-1 receptor = target: T2, mouse GLP-1 receptor (Mus musculus, UniProt O35659)
T2 sequence (O35659 22-463): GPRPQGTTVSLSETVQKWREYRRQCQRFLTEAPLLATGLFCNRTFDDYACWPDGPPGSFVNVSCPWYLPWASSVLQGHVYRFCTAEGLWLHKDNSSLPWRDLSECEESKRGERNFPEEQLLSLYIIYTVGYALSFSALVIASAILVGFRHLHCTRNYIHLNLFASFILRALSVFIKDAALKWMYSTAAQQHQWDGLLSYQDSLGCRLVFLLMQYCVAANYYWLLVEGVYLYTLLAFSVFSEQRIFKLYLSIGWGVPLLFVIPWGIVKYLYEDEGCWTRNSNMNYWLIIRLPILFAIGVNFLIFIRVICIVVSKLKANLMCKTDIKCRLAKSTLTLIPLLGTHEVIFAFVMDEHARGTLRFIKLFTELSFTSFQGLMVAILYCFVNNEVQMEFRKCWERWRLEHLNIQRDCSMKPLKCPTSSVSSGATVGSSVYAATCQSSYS

human GLP-1 receptor = human GLP-1 receptor (Homo sapiens, UniProt P43220); test: cell-based; conditions: hGLP-1R
Chain of human GLP-1 receptor (P43220 24-463): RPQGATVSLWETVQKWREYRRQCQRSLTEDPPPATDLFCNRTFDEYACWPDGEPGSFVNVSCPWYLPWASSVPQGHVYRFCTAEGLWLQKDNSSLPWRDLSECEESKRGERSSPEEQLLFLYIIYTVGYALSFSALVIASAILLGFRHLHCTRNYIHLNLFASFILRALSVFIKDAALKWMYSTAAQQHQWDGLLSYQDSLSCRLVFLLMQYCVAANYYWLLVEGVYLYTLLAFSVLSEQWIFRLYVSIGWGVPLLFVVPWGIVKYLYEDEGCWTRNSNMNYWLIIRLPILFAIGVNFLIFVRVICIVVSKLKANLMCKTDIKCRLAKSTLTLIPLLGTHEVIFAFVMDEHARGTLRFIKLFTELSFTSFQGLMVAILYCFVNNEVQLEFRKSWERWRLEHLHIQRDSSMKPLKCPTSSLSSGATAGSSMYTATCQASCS

[1] = Pharmacokinetic study in minipigs (terminal half-life after i.v. administration); assay type: in vivo; conditions: female, Göttingen, minipig, in vivo, iv
Description: The purpose of this example is to determine the half-life in vivo of the derivatives of the present invention after i.v. administration to minipigs, i.e. the prolongation of their time in the body and thereby their time of action. This is done in a pharmacokinetic (PK) study, where the terminal half-life of the derivative in question is determined. By terminal half-life is generally meant the period of time it takes to […] certain plasma concentration, measured after the initial distribution phase. Female Göttingen minipigs were obtained from Ellegaard Göttingen Minipigs (Dalmose, Denmark) approximately 7-14 months of age and weighing from approximately 16-35 kg were used in the studies. The minipigs were housed individually and fed restrictedly once daily with SDS minipig diet (Special Diets Services, Essex, UK). After at 3 weeks of acclimatisation two permanent central venous catheters were implanted in vena cava caudalis in each animal. The animals were allowed 1 week recovery after the surgery, and were then used for repeated pharmacokinetic studies with a suitable wash-out period between successive derivative dosing. The animals were fasted for approximately 18 hours before dosing and from 0 to 4 hours after dosing, but had adlibitum access to water during the whole period. […] Blood samples (for example 0.8 mL) were collected in 8 mM EDTA buffer and then centrifuged at 4° C. and 1942 g for 10 minutes. Plasma was pipetted into Micronic tubes on dry ice and kept at -20° C. until analysed for plasma concentration of the compounds using ELISA, or a similar antibody-based assay, or LCMS. […] (Pharsight Inc., Mountain View, CA, USA), and the resulting terminal half-lives (harmonic mean) determined.

human glucagon receptor = human glucagon receptor (Homo sapiens, UniProt P47871); test: cell-based
Chain of human glucagon receptor (P47871 26-477): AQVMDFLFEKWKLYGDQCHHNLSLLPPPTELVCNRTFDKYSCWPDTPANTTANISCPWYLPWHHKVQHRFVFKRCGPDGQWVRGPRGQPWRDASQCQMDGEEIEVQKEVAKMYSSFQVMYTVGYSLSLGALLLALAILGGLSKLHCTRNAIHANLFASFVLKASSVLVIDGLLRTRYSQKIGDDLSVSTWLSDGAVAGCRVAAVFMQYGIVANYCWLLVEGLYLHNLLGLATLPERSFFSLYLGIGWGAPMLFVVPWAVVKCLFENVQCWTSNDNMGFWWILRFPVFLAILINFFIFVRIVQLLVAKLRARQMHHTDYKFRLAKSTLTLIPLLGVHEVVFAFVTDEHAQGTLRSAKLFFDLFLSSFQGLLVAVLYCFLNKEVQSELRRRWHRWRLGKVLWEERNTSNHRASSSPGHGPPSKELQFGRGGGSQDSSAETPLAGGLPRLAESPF

[2] = minipigs, i.v. administration, harmonic mean, read-out: Terminal half-life t1/2 (converted)

Structure (SMILES) | EC50 (mouse GIP receptor) [nM] | EC50 (mouse GLP-1 receptor) [nM] | EC50 (human GLP-1 receptor; CRE Luc 0% HSA EC50, 0% HSA) [nM] | EC50 (human GLP-1 receptor; CRE Luc 1% HSA EC50, 1% HSA) [nM] | half-life [1] [h] | EC50 (human glucagon receptor) [nM] | half-life [1, 2] [h]
CC[C@H](C)[C@H](NC(=O)[C@H](CO)NC(=O)[C@H](Cc1ccc(O)cc1)NC(=O)[C@H](CC(=O)O)NC(=O)[C@H](CO)NC(=O)[C@@H](NC(=O)[C@H](Cc1ccccc1)NC(=O)[C@@H](NC(=O)CNC(=O)[C@H](CCC(=O)O)NC(=O)C(C)(C)NC(=O)[C@@H](N)Cc1ccc(O)cc1)[C@@H](C)O)[C@@H](C)O)C(=O)N[C@@H](Cc1ccc(O)cc1)C(=O)N[C@@H](CC(C)C)C(=O)N[C@@H](CCC(=O)O)C(=O)N[C@@H](CCCCNC(=O)COCCOCCNC(=O)COCCOCCNC(=O)CC[C@H](NC(=O)[C@H]1CC[C@H](CNC(=O)CCCCCCCCCCCCCCCCCCC(=O)O)CC1)C(=O)O)C(=O)N[C@@H](CCC(N)=O)C(=O)N[C@@H](C)C(=O)N[C@@H](C)C(=O)NC(C)(C)C(=O)N[C@@H](CCC(=O)O)C(=O)N[C@@H](Cc1ccccc1)C(=O)N[C@H](C(=O)N[C@@H](CC(N)=O)C(=O)N[C@@H](Cc1c[nH]c2ccccc12)C(=O)N[C@@H](CC(C)C)C(=O)N[C@@H](CC(C)C)C(=O)N[C@@H](C)C(=O)NCC(=O)NCC(=O)N1CCC[C@H]1C(=O)N[C@@H](CO)C(=O)N[C@@H](CO)C(=O)NCC(=O)N[C@@H](C)C(=O)N1CCC[C@H]1C(=O)N1CCC[C@H]1C(=O)N1CCC[C@H]1C(=O)N[C@@H](CO)C(N)=O)C(C)C [Compound 21] (H-Y[Aib]EGTFTSDYSIYLEK([AEEA-AEEA-γGlu-Trx-C20 diacid])QAA[Aib]EFVNWLLAGGPSSGAPPPS-NH2; N-terminus assumed) | 0.0366 | 0.0026 | 0.003 | 0.465 | 62 | > 10 | –
CC[C@H](C)[C@H](NC(=O)[C@H](CO)NC(=O)[C@H](Cc1ccc(O)cc1)NC(=O)[C@H](CC(=O)O)NC(=O)[C@H](CO)NC(=O)[C@@H](NC(=O)[C@H](Cc1ccccc1)NC(=O)[C@@H](NC(=O)CNC(=O)[C@H](CCC(=O)O)NC(=O)C(C)(C)NC(=O)[C@@H](N)Cc1ccc(O)cc1)[C@@H](C)O)[C@@H](C)O)C(=O)N[C@@H](Cc1ccc(O)cc1)C(=O)N[C@@H](CC(C)C)C(=O)N[C@@H](CCC(=O)O)C(=O)N[C@@H](CCCCN)C(=O)N[C@@H](CCCCNC(=O)COCCOCCNC(=O)COCCOCCNC(=O)CC[C@H](NC(=O)[C@H]1CC[C@H](CNC(=O)CCCCCCCCCCCCCCCCCCC(=O)O)CC1)C(=O)O)C(=O)N[C@@H](C)C(=O)N[C@@H](C)C(=O)NC(C)(C)C(=O)N[C@@H](CCC(=O)O)C(=O)N[C@@H](Cc1ccccc1)C(=O)N[C@H](C(=O)N[C@@H](CC(N)=O)C(=O)N[C@@H](Cc1c[nH]c2ccccc12)C(=O)N[C@@H](CC(C)C)C(=O)N[C@@H](CC(C)C)C(=O)N[C@@H](C)C(=O)NCC(=O)NCC(=O)N1CCC[C@H]1C(=O)N[C@@H](CO)C(=O)N[C@@H](CO)C(=O)NCC(=O)N[C@@H](C)C(=O)N1CCC[C@H]1C(=O)N1CCC[C@H]1C(=O)N1CCC[C@H]1C(=O)N[C@@H](CO)C(N)=O)C(C)C [Compound 22] (H-Y[Aib]EGTFTSDYSIYLEKK([AEEA-AEEA-γGlu-Trx-C20 diacid])AA[Aib]EFVNWLLAGGPSSGAPPPS-NH2; N-terminus assumed) | 0.124 | 0.0021 | 0.0033 | 1.13 | 95 | > 10 | –
CC[C@H](C)[C@H](NC(=O)[C@H](CO)NC(=O)[C@H](Cc1ccc(O)cc1)NC(=O)[C@H](CC(=O)O)NC(=O)[C@H](CO)NC(=O)[C@@H](NC(=O)[C@H](Cc1ccccc1)NC(=O)[C@@H](NC(=O)CNC(=O)[C@H](CCC(=O)O)NC(=O)C(C)(C)NC(=O)[C@@H](N)Cc1ccc(O)cc1)[C@@H](C)O)[C@@H](C)O)C(=O)N[C@@H](Cc1ccc(O)cc1)C(=O)N[C@@H](CC(C)C)C(=O)N[C@@H](CCC(=O)O)C(=O)N[C@@H](CCC(=O)O)C(=O)N[C@@H](CCC(N)=O)C(=O)N[C@@H](C)C(=O)N[C@@H](C)C(=O)NC(C)(C)C(=O)N[C@@H](CCCCNC(=O)[C@@H](N)CCCCNC(=O)[C@@H](N)CCCCNC(=O)CC[C@H](NC(=O)[C@H]1CC[C@H](CNC(=O)CCCCCCCCCCCCCCCCCCC(=O)O)CC1)C(=O)O)C(=O)N[C@@H](Cc1ccccc1)C(=O)N[C@H](C(=O)N[C@@H](CC(N)=O)C(=O)N[C@@H](Cc1c[nH]c2ccccc12)C(=O)N[C@@H](CC(C)C)C(=O)N[C@@H](CC(C)C)C(=O)N[C@@H](C)C(=O)NCC(=O)NCC(=O)N1CCC[C@H]1C(=O)N[C@@H](CO)C(=O)N[C@@H](CO)C(=O)NCC(=O)N[C@@H](C)C(=O)N1CCC[C@H]1C(=O)N1CCC[C@H]1C(=O)N1CCC[C@H]1C(=O)N[C@@H](CO)C(N)=O)C(C)C [Compound 19] (H-Y[Aib]EGTFTSDYSIYLEEQAA[Aib]K([εLys-εLys-γGlu-Trx-C20 diacid])FVNWLLAGGPSSGAPPPS-NH2; N-terminus assumed) | 0.134 | 0.0055 | 0.0046 | 0.297 | – | > 10 | 112
CC[C@H](C)[C@H](NC(=O)[C@H](CO)NC(=O)[C@H](Cc1ccc(O)cc1)NC(=O)[C@H](CC(=O)O)NC(=O)[C@H](CO)NC(=O)[C@@H](NC(=O)[C@H](Cc1ccccc1)NC(=O)[C@@H](NC(=O)CNC(=O)[C@H](CCC(=O)O)NC(=O)C(C)(C)NC(=O)[C@@H](N)Cc1ccc(O)cc1)[C@@H](C)O)[C@@H](C)O)C(=O)N[C@@H](Cc1ccc(O)cc1)C(=O)N[C@@H](CC(C)C)C(=O)N[C@@H](CCC(=O)O)C(=O)N[C@@H](CCCCNC(=O)[C@@H](N)CCCCNC(=O)[C@@H](N)CCCCNC(=O)CC[C@H](NC(=O)[C@H]1CC[C@H](CNC(=O)CCCCCCCCCCCCCCCCCCC(=O)O)CC1)C(=O)O)C(=O)N[C@@H](CCC(N)=O)C(=O)N[C@@H](C)C(=O)N[C@@H](C)C(=O)NC(C)(C)C(=O)N[C@@H](CCC(=O)O)C(=O)N[C@@H](Cc1ccccc1)C(=O)N[C@H](C(=O)N[C@@H](CC(N)=O)C(=O)N[C@@H](Cc1c[nH]c2ccccc12)C(=O)N[C@@H](CC(C)C)C(=O)N[C@@H](CC(C)C)C(=O)N[C@@H](C)C(=O)NCC(=O)NCC(=O)N1CCC[C@H]1C(=O)N[C@@H](CO)C(=O)N[C@@H](CO)C(=O)NCC(=O)N[C@@H](C)C(=O)N1CCC[C@H]1C(=O)N1CCC[C@H]1C(=O)N1CCC[C@H]1C(=O)N[C@@H](CO)C(N)=O)C(C)C [Compound 20] (H-Y[Aib]EGTFTSDYSIYLEK([εLys-εLys-γGlu-Trx-C20 diacid])QAA[Aib]EFVNWLLAGGPSSGAPPPS-NH2; N-terminus assumed) | 0.012 | 0.0026 | 0.0033 | 0.261 | – | > 10 | 88
